According to patent US20170231928A1, “SOLID COMPOSITION OF FINGOLIMOD AND PREPARATION THEREOF” (SUNSHINE LAKE PHARMA CO., LTD., priority 2014, published 2017):

Test: Excipient compatibility test: API and diluents, related substances
Assay type: physicochemical
Description: Some API and excipients mixture were weighed, placed in the vials, added with appropriate amount of purified water (w/w), and then sealed (simulated hot and humid environment) and placed in 60° C. oven. Sampled on the 10th day, and tested the content (%) of the related substances (single impurity and total impurities).

[1] = After 10 days (60° C.), water added, sealed

Related substances RRT = 0.84 (0 day): 0.06%
Related substances Total impurities (0 day): 0.06%
Related substances RRT = 0.84 [1]: 0.07%
Related substances RRT = 1.35 [1]: 0.03%
Related substances Total impurities [1]: 0.10%
SMILES: CCCCCCCCc1ccc(CCC(N)(CO)CO)cc1 [API, 2-amino-2-[2-(4-octylphenyl)ethyl]propan-1,3-diol]
